Measurements from PubChem BioAssay (NCI).
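Grown in 96-well plates, cells were treated for 48 hours with each compound at five concentrations. Insufficient inhibition: endpoint recorded as highest concentration tested. TGI is the concentration that stops growth completely.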

Tests used:
Test in all cases: DTP human tumour cell line panel, 48 h
SK-OV-3 ovarian = test system: SK-OV-3 ovarian
PC-3 prostate = test system: PC-3 prostate
HCC-2998 colon = test system: HCC-2998 colon
CCRF-CEM leukemia = test system: CCRF-CEM leukemia
HOP-62 NSCLC = test system: HOP-62 NSCLC
HCT-116 colon = test system: HCT-116 colon
DU-145 prostate = test system: DU-145 prostate
MCF7 breast = test system: MCF7 breast
NCI-H226 lung = test system: NCI-H226 lung
HS 578T breast = test system: HS 578T breast
NCI/ADR-RES ovarian = test system: NCI/ADR-RES ovarian
M14 melanoma = test system: M14 melanoma
MDA-MB-231 breast = test system: MDA-MB-231 breast
786-0 renal = test system: 786-0 renal
T-47D breast = test system: T-47D breast

Row | SMILES | TGI (SK-OV-3 ovarian) | TGI (PC-3 prostate) | TGI (HCC-2998 colon) | TGI (CCRF-CEM leukemia) | TGI (HOP-62 NSCLC) | TGI (HCT-116 colon) | TGI (DU-145 prostate) | TGI (MCF7 breast) | TGI (NCI-H226 lung) | TGI (HS 578T breast) | TGI (NCI/ADR-RES ovarian) | TGI (M14 melanoma) | TGI (MDA-MB-231 breast) | TGI (786-0 renal) | TGI (T-47D breast)
1 | COc1ccc(C(c2c[nH]c3ccc(Br)cc23)c2c[nH]c3ccc(Br)cc23)cc1 | 2.58 µM | 0.843 µM | 0.353 µM | 0.436 µM | 1.22 µM | 0.349 µM | 1.38 µM | 0.765 µM | 1.7 µM | 3.81 µM | 4.34 µM | 0.7 µM | 0.705 µM | 1.07 µM | 2.67 µM
2 | COc1cc(C2C3=C(COC3=O)Oc3cc4c(cc32)OCO4)ccc1OC(C)=O (stereo not given) | 0.909 µM | > 100 µM | 5.96 µM | > 49.6 µM | > 100 µM | > 100 µM | > 100 µM | > 100 µM | > 100 µM | 0.686 µM | > 100 µM | > 100 µM | 27.1 µM | > 100 µM | > 100 µM
3 | COC1CC(OC2CCC3(C)C(CCC45CCC(C6=CC(=O)OC6)C(C)(CCC43)C5=O)C2)OC(C)C1O (stereo not given) | > 100 µM | > 100 µM | 44.4 µM | 50.6 µM | 51.3 µM | > 100 µM | 29.3 µM | > 100 µM | > 100 µM | > 100 µM | > 100 µM | > 100 µM | > 100 µM | 64.8 µM | > 100 µM
4 | O=c1c2cccnc2cc(-c2ccccc2)n1CCO | > 100 µM | > 100 µM | > 100 µM | > 100 µM | > 100 µM | > 100 µM | > 100 µM | > 100 µM | > 100 µM | > 100 µM | > 100 µM | > 100 µM | > 100 µM | > 100 µM | > 100 µM
5 | O=c1oc2ccccc2nc1/C=C(\O)c1ccc([N+](=O)[O-])cc1 | > 100 µM | > 100 µM | > 100 µM | > 100 µM | > 100 µM | > 100 µM | > 100 µM | > 100 µM | > 100 µM | 95.1 µM | > 100 µM | > 100 µM | > 100 µM | > 100 µM | > 100 µM
6 | Nc1cn(Cc2ccccc2)c2nc(/C=C3/C=CC=CC3=O)c(O)n12 | > 100 µM | > 100 µM | > 100 µM | > 100 µM | > 100 µM | > 100 µM | > 100 µM | > 100 µM | > 100 µM | > 100 µM | > 100 µM | > 100 µM | > 100 µM | > 100 µM | > 100 µM
7 | Cc1cccc(C)c1NC(=S)NC=C(C(N)=O)C(N)=O | > 100 µM | > 100 µM | > 100 µM | > 100 µM | > 100 µM | > 100 µM | > 100 µM | > 100 µM | > 100 µM | > 100 µM | > 100 µM | > 100 µM | > 100 µM | > 100 µM | > 100 µM
8 | O=C1CCC2CCC1C2 (stereo not given) | > 100 µM | > 100 µM | > 100 µM | > 100 µM | > 100 µM | > 100 µM | > 100 µM | > 100 µM | > 100 µM | > 100 µM | > 100 µM | > 100 µM | > 100 µM | > 100 µM | > 100 µM
